Test results from publication PMC7321382, “Synthesis and Antibacterial Analysis of Analogues of the Marine Alkaloid Pseudoceratidine” (Molecules, 2020).
Converted amounts (≈) assume the structure as drawn.

Assays:
S. aureus 16207 = assay: Antibacterial MIC, broth microdilution, S. aureus; type: cell-based, Staphylococcus aureus; details: Staphylococcus aureus, 16207; Gram-positive; 24 h incubation; highest concentration tested 32 µM
Experimental: (§1) The MIC was determined using the broth microdilution method. Mueller Hinton (MH) broth base was prepared in milli-Q water, then autoclaved at 120 °C for 1 h before allowing it to cool to room temperature. A single colony of each bacterial strain (E. coli DH5α and S. aureus 16207) was inoculated in MHB and incubated at 37 °C overnight. Overnight cultures were adjusted to 10^6 CFU/mL in MHB according to the McFarland Standard,100 μL of which was further diluted to a total of 10 mL in the media. The stock solutions of the compounds were prepared at 12.8 mM in purified DMSO. The stock solutions were further diluted in milli-Q water to 64 μM in 0.5% DMSO for testing against S. aureus, and 256 μM in 2% DMSO for testing against E. coli. Compounds that were not soluble in these solvent mixtures were further diluted in half to get clear solutions for the bioassay. DMSO is known to have weak antibacterial activity. To exclude the antibacterial effect of DMSO from the results, a solution of 2% DMSO in milli-Q water was used as an additional control in the experiments. The compounds and three controls (the natural product pseudoceratidine 1 for both strains, streptomycin for S. aureus, and polymyxin B for E. coli) then underwent a dilution series. The assay was performed by adding 50 μL of each compound solution at the different concentrations and 50 μL of the diluted bacterial culture to the different wells of a 96-well microtiter plate. The experiments were performed at least thrice and in triplicates. MIC after 24 h of incubation was determined by both visual inspection and absorbance at 600 nm using an EnSpire Multimode plate reader.

E. coli DH5α = assay: Antibacterial MIC, broth microdilution, E. coli; type: cell-based, Escherichia coli; details: Gram-negative, 24 h incubation, highest concentration tested 128 µM, † lower starting concentration due to insolubility; for MIC: Escherichia coli
Experimental: as §1

Compound	melting point [°C]	MIC (S. aureus 16207) [µM]	MIC (E. coli DH5α) [µM]	MIC E. Coli (E. coli DH5α) [µM]
O=C(NCCCCCCNCCCCCCNC(=O)c1cc(Br)c[nH]1)c1cc(Br)c[nH]1 [Compound 15d]	178 to 180	> 32	> 64	
O=C(NCCNCCNC(=O)c1cc(Cl)c(Cl)[nH]1)c1cc(Cl)c(Cl)[nH]1 [Compound 13c]	> 230	> 32	> 64	
O=C(NCCCCNC(=O)c1ccc[nH]1)c1ccc[nH]1 [Compound 12a]	215 to 216	> 32	> 128	
NCCCNCCNC(=O)c1cc(Br)c(Br)[nH]1 [Compound 23]		> 32	> 128	
[H]/N=C(/N)N[C@H]1[C@H](O)[C@@H](O)[C@H](O[C@@H]2O[C@@H](C)[C@](O)(C=O)[C@H]2O[C@@H]2O[C@@H](CO)[C@H](O)[C@@H](O)[C@@H]2NC)[C@@H](N/C(N)=N\[H])[C@@H]1O [Streptomycin, streptomycin, reference compound]		0.625 to 1.25 (≈ 0.363 to 0.727 µg/mL)		
NCCNCCNC(=O)c1ccc[nH]1 [Compound 20]		> 32	> 128	
O=C(NCCCCNC(=O)c1cc(Br)c[nH]1)c1cc(Br)c[nH]1 [Compound 12d]	> 230	> 32	> 64	
O=C(NCCCNCCCNCCCNC(=O)c1cc(I)c[nH]1)c1cc(I)c[nH]1 [Compound 18f]	78 to 80	16 to 32 (≈ 10 to 20 µg/mL)	64 to 128 (≈ 40.1 to 80.2 µg/mL)	
O=C(NCCCNCCCNC(=O)c1cc(I)c[nH]1)c1cc(I)c[nH]1 [Compound 14f]	93 to 95	> 32	> 128	
O=C(NCCCCNC(=O)c1cc(I)c[nH]1)c1cc(I)c[nH]1 [Compound 12f]		> 32	> 64	
CC(C)(C)OC(=O)NCCCNC(=O)c1ccc[nH]1 [Compound 28a]	90 to 91	> 32	> 128	
O=C(NCCCNCCNC(=O)c1cc(Br)c[nH]1)c1cc(Br)c[nH]1 [Compound 16d]	188 to 190	> 32	> 128	
CN(C)CCCNC(=O)c1cc(I)c[nH]1 [Compound 27f]	169 to 171	> 32	> 128	
O=C(NCCCCNCCCNC(=O)c1cc(Cl)c[nH]1)c1cc(Cl)c[nH]1 [Compound 17b]	80 to 81	> 32	> 128	
O=C(NCCCCNCCCNC(=O)c1cc(Cl)c(Cl)[nH]1)c1cc(Cl)c(Cl)[nH]1 [Compound 17c]		> 32	128 to 256 (≈ 60.1 to 120 µg/mL)	
NCCNCCCNC(=O)c1cc(Br)c(Br)[nH]1 [Compound 24]		> 32	> 128	
O=C(NCCCCNCCCNC(=O)c1cc(I)c[nH]1)c1cc(I)c[nH]1 [Compound 17f]	89 to 90	> 32	> 128	
CN(C)CCCNC(=O)c1cc(Cl)c(Cl)[nH]1 [Compound 27c]		> 32	> 128	
O=C(NCCCCNCCCNC(=O)c1ccc[nH]1)c1ccc[nH]1 [Compound 17a]		> 32	> 128	
O=C(NCCCNCCCCNCCCNC(=O)c1ccc[nH]1)c1ccc[nH]1 [Compound 19a]	175 to 176	> 32	> 128	
CC(C)(C)OC(=O)NCCCNC(=O)c1cc(Br)c(Br)[nH]1 [Compound 28e]		> 32	> 128	
CN(C)CCCNC(=O)c1cc(Br)c(Br)[nH]1 [Compound 27e]		> 32	> 128	
O=C(NCCCCNC(=O)c1cc(Cl)c[nH]1)c1cc(Cl)c[nH]1 [Compound 12b]	> 230	> 32	> 64	
O=C(NCCCNCCNC(=O)c1cc(Cl)c[nH]1)c1cc(Cl)c[nH]1 [Compound 16b]	167 to 169	> 32	> 128	
CC(C)(C)OC(=O)NCCCNC(=O)c1cc(Cl)c[nH]1 [Compound 28b]		> 32	> 128	
O=C(NCCCNCCCNC(=O)c1cc(Cl)c[nH]1)c1cc(Cl)c[nH]1 [Compound 14b]	78 to 80	> 32	> 128	
NCCCNCCNC(=O)c1cc(Br)c[nH]1 [Compound 21]		> 32	> 128	
O=C(NCCCNCCCCNCCCNC(=O)c1cc(I)c[nH]1)c1cc(I)c[nH]1 [Compound 19f]	173 to 175	16 to 32 (≈ 10.2 to 20.5 µg/mL)	> 128	

Compound	melting point [°C]	MIC (S. aureus 16207) [µM]	MIC (E. coli DH5α) [µM]	MIC E. Coli (E. coli DH5α) [µM]
O=C(NCCCNCCNC(=O)c1ccc[nH]1)c1ccc[nH]1 [Compound 16a]	69 to 71	> 32	> 128	
O=C(NCCCNCCCNC(=O)c1cc(Br)c[nH]1)c1cc(Br)c[nH]1 [Compound 14d]	73 to 75	> 32	> 128	
O=C(NCCNCCNC(=O)c1cc(Br)c(Br)[nH]1)c1cc(Br)c(Br)[nH]1 [Compound 13e]	> 230	> 32	> 64	
CC(C)(C)OC(=O)NCCCNC(=O)c1cc(Br)c[nH]1 [Compound 28d]		> 32	> 128	
O=C(NCCCCNCCCNC(=O)c1cc(Br)c[nH]1)c1cc(Br)c[nH]1 [Compound 17d]		> 32	> 128	
O=C(NCCCCCCNCCCCCCNC(=O)c1cc(I)c[nH]1)c1cc(I)c[nH]1 [Compound 15f]	174 to 176	> 32	> 64	
O=C(NCCNCCNC(=O)c1cc(Br)c[nH]1)c1cc(Br)c[nH]1 [Compound 13d]	201 to 203	> 32	> 128	
CN(C)CCCNC(=O)c1cc(Cl)c[nH]1 [Compound 27b]		> 32	> 128	
O=C(NCCCNCCCNCCCNC(=O)c1cc(Cl)c[nH]1)c1cc(Cl)c[nH]1 [Compound 18b]		> 32	64 to 128 (≈ 28.4 to 56.8 µg/mL)	
polymyxin B [reference compound]				0.3 to 0.6
O=C(NCCNCCNC(=O)c1cc(I)c[nH]1)c1cc(I)c[nH]1 [Compound 13f]	193 to 195	> 32	> 64	
O=C(NCCCNCCCNCCCNC(=O)c1ccc[nH]1)c1ccc[nH]1 [Compound 18a]		> 32	> 128	
CC(C)(C)OC(=O)NCCCNC(=O)c1cc(Cl)c(Cl)[nH]1 [Compound 28c]	158 to 160	> 32	> 128	
O=C(NCCCCCCNCCCCCCNC(=O)c1ccc[nH]1)c1ccc[nH]1 [Compound 15a]	129 to 131	> 32	> 128	
O=C(NCCCCNC(=O)c1cc(Cl)c(Cl)[nH]1)c1cc(Cl)c(Cl)[nH]1 [Compound 12c]	> 230	> 32	> 64	
O=C(NCCNCCNC(=O)c1ccc[nH]1)c1ccc[nH]1 [Compound 13a]	191 to 193	> 32	> 128	
O=C(NCCCCCCNCCCCCCNC(=O)c1cc(Cl)c[nH]1)c1cc(Cl)c[nH]1 [Compound 15b]	106 to 108	> 32	> 128	
NCCNCCCNC(=O)c1cc(Br)c[nH]1 [Compound 22]		> 32	> 128	
CC(C)(C)OC(=O)NCCCNC(=O)c1cc(I)c[nH]1 [Compound 28f]	128 to 130	> 32	> 128	
CN(C)CCCNC(=O)c1ccc[nH]1 [Compound 27a]		> 32	> 128	
O=C(NCCCNCCCCNCCCNC(=O)c1cc(Br)c[nH]1)c1cc(Br)c[nH]1 [Compound 19d]	173 to 175	16 to 32 (≈ 8.74 to 17.5 µg/mL)	64 to 128 (≈ 35 to 69.9 µg/mL)	
O=C(NCCCNCCNC(=O)c1cc(I)c[nH]1)c1cc(I)c[nH]1 [Compound 16f]	178 to 180	> 32	> 128	
O=C(NCCCNCCCCNCCCNC(=O)c1cc(Cl)c[nH]1)c1cc(Cl)c[nH]1 [Compound 19b]	194 to 195	> 32	> 128	
O=C(NCCNCCNC(=O)c1cc(Cl)c[nH]1)c1cc(Cl)c[nH]1 [Compound 13b]	199 to 201	> 32	> 128	
CN(C)CCCNC(=O)c1cc(Br)c[nH]1 [Compound 27d]		> 32	> 128	
O=C(NCCCNCCCNCCCNC(=O)c1cc(Br)c[nH]1)c1cc(Br)c[nH]1 [Compound 18d]		16 to 32 (≈ 8.52 to 17 µg/mL)	64 to 128 (≈ 34.1 to 68.1 µg/mL)	
O=C(NCCCCNC(=O)c1cc(Br)c(Br)[nH]1)c1cc(Br)c(Br)[nH]1 [Compound 12e]	> 230	> 32	> 64	
